Measurements from patent publication US20240239841A1, “PEPTIDE AND METHOD FOR TREATING PAIN USING THE SAME” (PELL BIO-MED TECHNOLOGY CO., LTD., priority 2019, published 2024).
Non-standard residues stand in square brackets, D forms with d. pGlu = O=C1CC[C@@H](C(=O)O)N1

Experiments:
[1] = test system: TNF-α; assay: Serum TNF-α by ELISA in CFA-induced arthritis mice after long-term oral administration; assay type: in vivo, ICR mice; details: 3 mg/kg oral once a week, 4th to 12th week; serum at 12th week; vs water control; FIG. 1
Method: (§1) On the other hand, the mice administered with water were served as the control group, which also comprised 6 mice. The mice in the experimental group and the control group were sacrificed on the 12th week after administration. The serum collection is conducted by cardiac puncture. The Mouse TNF-α Quantikine ELISA Kit (R&D System, MTA00B), Mouse IL-6 Quantikine ELISA Kit (R&D System, M600B) and enzyme-linked immunosorbent assay (ELISA) were used to determine and collect the serum concentration of TNF-α and IL-6 of mice in the experimental group and the control group.

[2] = test system: IL-6; assay: Serum IL-6 by ELISA in CFA-induced arthritis mice after long-term oral administration; assay type: in vivo, ICR mice; details: 3 mg/kg oral once a week, 4th to 12th week; serum at 12th week; vs water control; FIG. 2
Method: as §1

[3] = test system: C57BL/6JNarl male mice (acetic acid-induced visceral pain); assay: Acetic acid-induced writhing (abdominal constriction) assay; assay type: in vivo, C57BL/6JNarl mice; details: oral doses of 1 μg/kg and 10 mg/kg, among 0.1 μg/kg to 10 mg/kg tested; 10 min before 1% acetic acid; FIG. 9
Method: (§2) For conducting nociceptive pain and acid-induced chronic widespread pain experiments, C57BL/6JNarl male mice (20 to 25 g) were housed in an environment with temperature control (24±0.5° C.) and 12-hour light-dark cycle (lights on during 08:00-20:00) and allowed free access to standard laboratory food and tap water. Animals were allowed to acclimatize for 20 to 30 min prior to experimental manipulations. Animal care and handling procedures were adopted in accordance with the International Association for the Study of Pain guidelines for those animals used in pain research, and the procedures were approved by the Committee for Ethics in Animal Research.
Acid-induced abdominal constriction assay was performed in accordance with H. O. Collier, L. C. Dinneen, C. A. Johnson, C. Schneider, The abdominal constriction response and its suppression by analgesic drugs in the mouse. Br J Pharmacol Chemother 32, 295-310 (1968). In general, the mice from Preparation Example 3 were placed in a small observation chamber and habituated for 20 min. […] The numbers of abdominal constrictions in 30 min after acid injection were counted and the mean constriction numbers of mice of each group were calculated. […]

[4] = test system: C57BL/6JNarl male mice (radiant heat tail-flick); assay: Radiant heat tail-flick test; assay type: in vivo, C57BL/6JNarl mice; details: oral doses of 0.1 μg/kg, 0.3 μg/kg, 0.1 mg/kg, 1 mg/kg, 3 mg/kg and 10 mg/kg, among 0.01 μg/kg to 10 mg/kg tested; latency 10-90 min; FIG. 9
Method: as §2
The radiant heat tail-flick test was modified in accordance with F. E. D'Amour, D. L. Smith, A method for determining loss of pain sensation. The Journal of Pharmacology and Experimental Therapeutics 72, 74-79 (1941). The 5 to 12 mice from Preparation Example 3 were placed and acclimatized in the restrainers for 30 min prior to the tail-flick test. […] The latency was recorded every 10 min during the indicated time period (10-90 min) after oral administration with different dosages of the peptide of SEQ ID NO: 1 (0.01 μg/kg, 0.03 μg/kg, 0.1 μg/kg, 0.3 μg/kg, 1 μg/kg, 0.01 mg/kg, 0.1 mg/kg, 1 mg/kg, 3 mg/kg, and 10 mg/kg). Then the latency during 10-90 min was calculated. […]

[5] = test system: ICR mice with CFA-induced arthritis (bilateral mechanical hyperalgesia); assay: Paw withdrawal threshold (PWT) by von Frey Filament in CFA-induced arthritis mice; details: for PWT value of ipsilateral hind paw / PWT value of contralateral paw: 90 min after administration; for time of best antinociceptive effect after administration: peptide 3 mg/kg, morphine 10 mg/kg, PWT determined at 0, 30, 60, 90, 120 min

In the case of “Glp Glu Thr Ala Val Ser Ser His Glu Gln Asp ([pGlu]ETAVSSHEQD-OH; SMILES CC(C)[C@H](NC(=O)[C@H](C)NC(=O)[C@@H](NC(=O)[C@H](CCC(=O)O)NC(=O)[C@@H]1CCC(=O)N1)[C@@H](C)O)C(=O)N[C@@H](CO)C(=O)N[C@@H](CO)C(=O)N[C@@H](Cc1c[nH]cn1)C(=O)N[C@@H](CCC(=O)O)C(=O)N[C@@H](CCC(N)=O)C(=O)N[C@@H](CC(=O)O)C(=O)O) [peptide of SEQ ID NO: 1]”, the “serum concentration of TNF-α” value [1] is reported as “not detected (ND)”, the “serum concentration of IL-6” value [2] is reported as “decreased compared to the control group” and the “antinociceptive effect in the acid-induced writhing experiment (antinociceptive activity %)” value [3] is reported as “best antinociceptive effect”. The “antinociceptive effect in the radiant heat tail-flick test (% MPE)” value [4] was “best antinociceptive effect”, the “PWT value of ipsilateral hind paw” value ([5]; 0.3 μg/kg oral, rose from 0.065 g, FIG. 7) was 1 g and the “PWT value of contralateral paw” value ([5]; 0.3 μg/kg oral, rose from 0.32 g, FIG. 8) was 1 g. The “PWT value of ipsilateral hind paw” value ([5]; 1 μg/kg oral, rose from 0.065 g, FIG. 7) was 0.6 g, the “PWT value of contralateral paw” value ([5]; 1 μg/kg oral, rose from 0.32 g, FIG. 8) was 1.4 g and the “PWT value of ipsilateral hind paw” value ([5]; 3 μg/kg oral, rose from 0.065 g, FIG. 7) was 0.16 g. The “PWT value of contralateral paw” value ([5]; 3 μg/kg oral, rose from 0.32 g, FIG. 8) was 1 g, the “PWT value of ipsilateral hind paw” value ([5]; 1 mg/kg oral once a week, 4th to 12th week, increased from 0.09 g, FIG. 5) was 0.5˜1 g and the “PWT value of contralateral paw” value ([5]; 1 mg/kg oral once a week, 4th to 12th week, increased from 0.4 g at 3rd week, FIG. 6) was 0.6˜ 1.2 g. The “PWT value of ipsilateral hind paw” value ([5]; 3 mg/kg oral once a week, 4th to 12th week, increased from 0.09 g of 3rd week, FIG. 5) was 0.63˜1 g, the “PWT value of contralateral paw” value ([5]; 3 mg/kg oral once a week, 4th to 12th week, increased from 0.4 g, FIG. 6) was 0.87˜1.27 g and the “antinociceptive effects of 1 mg/kg and 3 mg/kg compared (PWT)” value ([5]; oral, long-term administration once a week, 4th to 12th week) was “similar”. For the same compound, the “time of best antinociceptive effect after administration” value ([5]; oral) was 90 min, the “PWT value of ipsilateral hind paw” value ([5]; peptide 3 mg/kg oral on 4th week, rose from 0.07 g, FIG. 3) was 0.9 ± 0.156 g and the “PWT value of contralateral paw” value ([5]; peptide 3 mg/kg oral on 4th week, rose from 0.5±0.047 g, FIG. 4) was 1.35 ± 0.193 g. For the same compound, the “antinociceptive effect compared with morphine (PWT)” value ([5]; peptide 3 mg/kg oral vs morphine 10 mg/kg oral, lower amount required) was “antinociceptive effect similar to morphine”.

With `CN1CC[C@]23c4c5ccc(O)c4O[C@H]2[C@@H](O)C=C[C@H]3[C@H]1C5` [morphine, reference compound] the “PWT value of ipsilateral hind paw” value ([5]; morphine 10 mg/kg oral on 4th week, rose from 0.085±0.015 g, FIG. 3) was 0.64 ± 0.089 g, the “PWT value of contralateral paw” value ([5]; morphine 10 mg/kg oral on 4th week, rose from 0.43±0.033 g, FIG. 4) was 1.96 ± 0.488 g and the “time of best antinociceptive effect after administration” value ([5]; oral) was 90 min.
